pIC50, pKi: −log10 of the molar value.
Experiments:
Acetylcholinesterase [1] = molecular target: T1, Acetylcholinesterase (Homo sapiens, UniProt P22303); experiment: Inhibition of human recombinant AChE after 5 mins by Ellman's method
Cholinesterase = Cholinesterase (Homo sapiens, UniProt P06276); experiment: Inhibition of human plasmatic BChE after 5 mins by Ellman's method; design: species or system Plasma
Acetylcholinesterase [2] = molecular target: T1, Acetylcholinesterase; experiment: Inhibition of human recombinant AChE by Lineweaver-Burk plot analysis
Acetylcholinesterase [3] = molecular target: T1, Acetylcholinesterase; experiment: Non competitive inhibition of human recombinant AChE using ATChCl as substrate by Lineweaver-Burk plot analysis

T1 sequence (P22303 whole entry): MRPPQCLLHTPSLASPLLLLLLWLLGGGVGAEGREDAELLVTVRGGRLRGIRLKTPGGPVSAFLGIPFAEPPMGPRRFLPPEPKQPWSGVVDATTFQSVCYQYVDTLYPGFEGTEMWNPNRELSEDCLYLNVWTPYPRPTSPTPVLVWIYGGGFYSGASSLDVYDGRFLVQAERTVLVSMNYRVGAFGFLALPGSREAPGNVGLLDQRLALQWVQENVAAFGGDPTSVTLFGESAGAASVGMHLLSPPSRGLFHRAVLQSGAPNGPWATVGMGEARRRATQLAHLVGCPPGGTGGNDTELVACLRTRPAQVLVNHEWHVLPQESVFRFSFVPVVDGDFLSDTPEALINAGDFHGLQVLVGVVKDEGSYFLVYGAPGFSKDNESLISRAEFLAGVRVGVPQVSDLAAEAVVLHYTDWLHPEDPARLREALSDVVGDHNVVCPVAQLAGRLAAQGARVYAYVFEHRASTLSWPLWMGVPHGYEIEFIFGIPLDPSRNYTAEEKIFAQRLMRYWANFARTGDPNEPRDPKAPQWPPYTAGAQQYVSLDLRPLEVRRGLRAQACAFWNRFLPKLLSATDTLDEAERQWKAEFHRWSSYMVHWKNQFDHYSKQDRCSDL
Cholinesterase, sequence (P06276 whole entry): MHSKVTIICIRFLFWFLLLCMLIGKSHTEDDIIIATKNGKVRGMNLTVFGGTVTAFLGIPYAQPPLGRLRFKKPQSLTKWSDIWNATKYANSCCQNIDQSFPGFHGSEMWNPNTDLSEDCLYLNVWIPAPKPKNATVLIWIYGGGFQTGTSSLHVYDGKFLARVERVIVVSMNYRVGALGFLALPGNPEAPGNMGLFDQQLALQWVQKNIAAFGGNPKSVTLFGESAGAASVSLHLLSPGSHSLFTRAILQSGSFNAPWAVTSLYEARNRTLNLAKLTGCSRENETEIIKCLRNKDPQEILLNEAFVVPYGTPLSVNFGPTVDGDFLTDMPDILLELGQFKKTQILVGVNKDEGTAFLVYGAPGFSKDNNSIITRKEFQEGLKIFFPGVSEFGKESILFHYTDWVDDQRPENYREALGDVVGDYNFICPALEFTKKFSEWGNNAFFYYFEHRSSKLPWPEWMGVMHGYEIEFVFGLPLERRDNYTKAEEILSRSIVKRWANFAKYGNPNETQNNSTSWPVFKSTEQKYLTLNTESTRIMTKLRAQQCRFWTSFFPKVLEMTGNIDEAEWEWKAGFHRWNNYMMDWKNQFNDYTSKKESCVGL

Structure (SMILES)	pIC50 (Acetylcholinesterase [1])	pIC50 (Cholinesterase)	pKi (Acetylcholinesterase [2])	pKi (Acetylcholinesterase [3])
c1cc[n+](CCCCCCC[n+]2ccc3ccccc3c2)cc1	6.10	6.00		
c1cc[n+](CCCCCCCC[n+]2ccc3ccccc3c2)cc1	6.85	5.11		
c1cc[n+](CCCCCCCCC[n+]2ccc3ccccc3c2)cc1	7.40	6.46		
c1cc[n+](CCCCCCCCCC[n+]2ccc3ccccc3c2)cc1	7.70	6.43		
c1cc[n+](CCCCCCCCCCC[n+]2ccc3ccccc3c2)cc1	7.52	6.15		
c1cc[n+](CCCCCCC[n+]2cccc3ccccc32)cc1	6.27	5.66		
c1cc[n+](CCCCCCCC[n+]2cccc3ccccc32)cc1	6.57	5.70		
c1cc[n+](CCCCCCCCC[n+]2cccc3ccccc32)cc1	6.92	5.77		
c1cc[n+](CCCCCCCCCCC[n+]2cccc3ccccc32)cc1	7.77	6.05		
c1cc[n+](CCCCCCCCCCCC[n+]2cccc3ccccc32)cc1	8.33	6.17	7.70	8.00
